Species: Rattus norvegicus
Assay: DrugMatrix - Regimen: Daily Repeat
Type: toxicity, organism-based, Sprague-Dawley
Parameters: regimen Daily Repeat, gender Male, age 6-8 weeks
Conditions: in vivo, sc, route subcutaneous, […]; for ABSOLUTE BASOPHIL / ABSOLUTE EOSINOPHIL / ABSOLUTE LYMPHOCYTE / ABSOLUTE MONOCYTE / ABSOLUTE SEGMENTED NEUTROPHIL / BASOPHIL / EOSINOPHIL / ERYTHROCYTE COUNT / HEMATOCRIT / HEMOGLOBIN / LEUKOCYTE COUNT / LYMPHOCYTE / MEAN CORPUSCULAR HEMOGLOBIN / MEAN CORPUSCULAR HEMOGLOBIN CONCENTRATION / MEAN CORPUSCULAR VOLUME / MONOCYTE / NEUTROPHIL / NUCLEATED RED BLOOD CELLS / PLATELET COUNT: tissue Blood; for ALANINE AMINOTRANSFERASE / ALBUMIN / ALKALINE PHOSPHATASE / ASPARTATE AMINOTRANSFERASE / BLOOD UREA NITROGEN / CARBON DIOXIDE / CHLORIDE / CHOLESTEROL / CREATINE PHOSPHOKINASE / CREATININE / GLUCOSE / LACTATE DEHYDROGENASE / LIPASE / PHOSPHORUS / POTASSIUM / SODIUM / TOTAL BILIRUBIN / TOTAL PROTEIN / URIC ACID: tissue Plasma
[1] = 0.8 mg/kg, 120 h, dose level Low, time 5 day
[2] = 8 mg/kg, 72 h, dose level High, time 3 day
[3] = 8 mg/kg, 120 h, dose level High, time 5 day

Oc1c(Cl)cc(Cl)c(Cl)c1Cc1c(O)c(Cl)cc(Cl)c1Cl [HEXACHLOROPHENE]
ABSOLUTE BASOPHIL [1]: 0 CELLS/uL
ABSOLUTE EOSINOPHIL [1]: 0 CELLS/uL
ABSOLUTE LYMPHOCYTE [1]: 15077 CELLS/uL
ABSOLUTE MONOCYTE [1]: 281 CELLS/uL
ABSOLUTE SEGMENTED NEUTROPHIL [1]: 1342 CELLS/uL
BASOPHIL [1]: 0%
EOSINOPHIL [1]: 0%
ERYTHROCYTE COUNT [1]: 5.52 x10E6/uL
HEMATOCRIT [1]: 35.07%
HEMOGLOBIN [1]: 13.27 G/DL
LEUKOCYTE COUNT [1]: 16.7 x10E3/uL
LYMPHOCYTE [1]: 90.33%
MEAN CORPUSCULAR HEMOGLOBIN [1]: 24.07 pg
MEAN CORPUSCULAR HEMOGLOBIN CONCENTRATION [1]: 37.9 G/DL
MEAN CORPUSCULAR VOLUME [1]: 63.53 fL
MONOCYTE [1]: 1.67%
NEUTROPHIL [1]: 8%
NUCLEATED RED BLOOD CELLS [1]: 0 /100WBC
PLATELET COUNT [1]: 1358.33 x10E3/uL
ALANINE AMINOTRANSFERASE [1]: 45.33 u/L
ALBUMIN [1]: 4.07 G/DL
ALKALINE PHOSPHATASE [1]: 296.33 u/L
ASPARTATE AMINOTRANSFERASE [1]: 78 u/L
BLOOD UREA NITROGEN [1]: 15.67 mg/dL
CARBON DIOXIDE [1]: 26.67 mmol/L
CHLORIDE [1]: 104.67 MEQ/L
CHOLESTEROL [1]: 74.67 mg/dL
CREATINE PHOSPHOKINASE [1]: 237 u/L
CREATININE [1]: 0.35 mg/dL
GLUCOSE [1]: 154.33 mg/dL
LACTATE DEHYDROGENASE [1]: 156 u/L
LIPASE [1]: 11 u/L
PHOSPHORUS [1]: 11.83 mg/dL
POTASSIUM [1]: 6.6 MEQ/L
SODIUM [1]: 144.67 MEQ/L
TOTAL BILIRUBIN [1]: 0.13 mg/dL
TOTAL PROTEIN [1]: 5.8 G/DL
URIC ACID [1]: 1.47 mg/dL
ABSOLUTE BASOPHIL [2]: 0 CELLS/uL
ABSOLUTE EOSINOPHIL [2]: 49.67 CELLS/uL
ABSOLUTE LYMPHOCYTE [2]: 12140.67 CELLS/uL
ABSOLUTE MONOCYTE [2]: 337 CELLS/uL
ABSOLUTE SEGMENTED NEUTROPHIL [2]: 1839.33 CELLS/uL
BASOPHIL [2]: 0%
EOSINOPHIL [2]: 0.33%
ERYTHROCYTE COUNT [2]: 5.89 x10E6/uL
HEMATOCRIT [2]: 36.63%
HEMOGLOBIN [2]: 13.43 G/DL
LEUKOCYTE COUNT [2]: 14.37 x10E3/uL
LYMPHOCYTE [2]: 84.67%
MEAN CORPUSCULAR HEMOGLOBIN [2]: 22.8 pg
MEAN CORPUSCULAR HEMOGLOBIN CONCENTRATION [2]: 36.7 G/DL
MEAN CORPUSCULAR VOLUME [2]: 62.27 fL
MONOCYTE [2]: 2.33%
NEUTROPHIL [2]: 12.67%
NUCLEATED RED BLOOD CELLS [2]: 0 /100WBC
PLATELET COUNT [2]: 1253 x10E3/uL
ALANINE AMINOTRANSFERASE [2]: 52 u/L
ALBUMIN [2]: 4.1 G/DL
ALKALINE PHOSPHATASE [2]: 314.33 u/L
ASPARTATE AMINOTRANSFERASE [2]: 87.67 u/L
BLOOD UREA NITROGEN [2]: 16.67 mg/dL
CARBON DIOXIDE [2]: 22.33 mmol/L
CHLORIDE [2]: 105.33 MEQ/L
CHOLESTEROL [2]: 87.33 mg/dL
CREATINE PHOSPHOKINASE [2]: 258.67 u/L
CREATININE [2]: 0.21 mg/dL
GLUCOSE [2]: 187.33 mg/dL
LACTATE DEHYDROGENASE [2]: 132 u/L
LIPASE [2]: 9.67 u/L
PHOSPHORUS [2]: 11.9 mg/dL
POTASSIUM [2]: 5.67 MEQ/L
SODIUM [2]: 146.53 MEQ/L
TOTAL BILIRUBIN [2]: 0.17 mg/dL
TOTAL PROTEIN [2]: 5.93 G/DL
URIC ACID [2]: 2.47 mg/dL
ABSOLUTE BASOPHIL [3]: 0 CELLS/uL
ABSOLUTE EOSINOPHIL [3]: 154 CELLS/uL
ABSOLUTE LYMPHOCYTE [3]: 13307.33 CELLS/uL
ABSOLUTE MONOCYTE [3]: 238 CELLS/uL
ABSOLUTE SEGMENTED NEUTROPHIL [3]: 1100.67 CELLS/uL
BASOPHIL [3]: 0%
EOSINOPHIL [3]: 1%
ERYTHROCYTE COUNT [3]: 5.91 x10E6/uL
HEMATOCRIT [3]: 35.87%
HEMOGLOBIN [3]: 13.17 G/DL
LEUKOCYTE COUNT [3]: 14.8 x10E3/uL
LYMPHOCYTE [3]: 90%
MEAN CORPUSCULAR HEMOGLOBIN [3]: 22.3 pg
MEAN CORPUSCULAR HEMOGLOBIN CONCENTRATION [3]: 36.7 G/DL
MEAN CORPUSCULAR VOLUME [3]: 60.8 fL
MONOCYTE [3]: 1.67%
NEUTROPHIL [3]: 7.33%
NUCLEATED RED BLOOD CELLS [3]: 0 /100WBC
PLATELET COUNT [3]: 1301.67 x10E3/uL
ALANINE AMINOTRANSFERASE [3]: 46 u/L
ALBUMIN [3]: 4 G/DL
ALKALINE PHOSPHATASE [3]: 378.33 u/L
ASPARTATE AMINOTRANSFERASE [3]: 85 u/L
BLOOD UREA NITROGEN [3]: 16.33 mg/dL
CARBON DIOXIDE [3]: 27.33 mmol/L
CHLORIDE [3]: 104.67 MEQ/L
CHOLESTEROL [3]: 70.33 mg/dL
CREATINE PHOSPHOKINASE [3]: 346.67 u/L
CREATININE [3]: 0.2 mg/dL
GLUCOSE [3]: 174 mg/dL
LACTATE DEHYDROGENASE [3]: 129.67 u/L
LIPASE [3]: 9.33 u/L
PHOSPHORUS [3]: 11.03 mg/dL
POTASSIUM [3]: 5.65 MEQ/L
SODIUM [3]: 146 MEQ/L
TOTAL BILIRUBIN [3]: 0.2 mg/dL
TOTAL PROTEIN [3]: 5.83 G/DL
URIC ACID [3]: 1.63 mg/dL
